From patent publication US10563263B2, “Genetic polymorphisms associated with statin response and cardiovascular diseases, methods of detection and uses thereof” (CELERA CORPORATION, priority 2010, dated 2020)

Legend:
[1] = system: CVD (CHD or stroke); assay: Meta-analysis of CARE and WOSCOPS combined, synergy index, CVD endpoint; assay type: in vivo, human
Description: Tables 4-5 provide meta-analyses of CARE and WOSCOPS combined (2nd section of each table) for two endpoints (CHD and CVD) and three genetic models (dominant, recessive, and additive), as well as logistic regression analyses of CARE (3rd section of each table) and WOSCOPS (4th section of each table) individually.
Tables 12 and 17 provide results of meta-analysis of the CARE and WOSCOPS sample sets combined by direct genotyping and by imputing genotypes.
“P” indicates the p-value, and “P(R)” (or “P.R.”) indicates the p-value random effect. Both of these are p-values corresponding to a statistical test of whether the combined synergy index is equal to one but use different assumptions to derive the p-value. “P” is calculated using a fixed effects model, and “P(R)” is calculated using a random effects model.
“OR” indicates the odds ratio (synergy index) calculated from a fixed effects model, and “OR(R)” (or “OR.R.”) indicates the odds ratio (synergy index) calculated from a random effects model.

[2] = system: myocyte cultures; conditions: animal models and myocyte cultures; compared to lipophilic statins; cited from earlier work

CC[C@H](C)C(=O)O[C@H]1C[C@H](O)C=C2C=C[C@H](C)[C@H](CC[C@@H](O)C[C@@H](O)CC(=O)O)[C@H]21 [Pravastatin, pravastatin]
OR(R) ([1]; rs483159 allele T DOMINANT Imputed): 1.4202 | OR(R) ([1]; rs489441 allele G ADDITIVE Imputed): 1.4992 | OR(R) ([1]; rs489441 allele G DOMINANT Imputed): 1.6072 | OR(R) ([1]; rs937890 allele G (A1), DOMINANT, Imputed): 0.6731 | OR(R) ([1]; rs949016 allele C (A1), ADDITIVE, Imputed): 1.5082 | OR(R) ([1]; rs966583 allele A (A1), ADDITIVE, Imputed): 0.7272 | OR(R) ([1]; rs966583 allele A (A1), DOMINANT, Imputed): 0.5916 | OR(R) ([1]; rs974130 allele A (A1), RECESSIVE, Genotyped): 2.0112 | OR(R) ([1]; rs977160 allele T (A1), ADDITIVE, Imputed): 1.5465 | OR(R) ([1]; rs985375 allele A (A1), GENOTYPIC, Imputed): 2.8891 | OR(R) ([1]; rs4760895 allele A ADDITIVE Imputed): 0.7392 | OR(R) ([1]; rs4760895 allele A DOMINANT Imputed): 0.6285 | OR(R) ([1]; rs4760895 allele A GENOTYPIC Imputed): 0.574 | OR(R) ([1]; rs4764738 allele A ADDITIVE Imputed): 1.4051 | OR(R) ([1]; rs4764738 allele A GENOTYPIC Imputed): 1.9728 | OR(R) ([1]; rs4764974 allele T ADDITIVE Imputed): 1.3855 | OR(R) ([1]; rs4764974 allele T GENOTYPIC Imputed): 1.9196 | OR(R) ([1]; rs4798366 allele G RECESSIVE Imputed): 1.8332 | OR(R) ([1]; rs4836502 allele T DOMINANT Imputed): 0.6712 | OR(R) ([1]; rs4836507 allele C DOMINANT Imputed): 0.6775 | OR(R) ([1]; rs4836744 allele A ADDITIVE Imputed): 0.7345 | OR(R) ([1]; rs4836744 allele A DOMINANT Imputed): 0.6854 | OR(R) ([1]; rs4848944 allele C RECESSIVE Genotyped): 0.5819 | OR(R) ([1]; rs4851529 allele A DOMINANT Imputed): 0.6476 | OR(R) ([1]; rs4851531 allele T DOMINANT Imputed): 0.6602 | OR(R) ([1]; rs4858046 allele T GENOTYPIC Genotyped): 2.0533 | OR(R) ([1]; rs4878214 allele A ADDITIVE Imputed): 0.6477 | OR(R) ([1]; rs4880803 allele A ADDITIVE Imputed): 0.7694 | OR(R) ([1]; rs4896568 allele T DOMINANT Imputed): 0.6231 | OR(R) ([1]; rs4938851 allele T DOMINANT Imputed): 1.4515 | OR(R) ([1]; rs4964416 allele C DOMINANT Imputed): 0.6251 | OR(R) ([1]; rs5756669 allele C DOMINANT Imputed): 1.6531 | OR(R) ([1]; rs6033138 allele C ADDITIVE Imputed): 1.3837 | OR(R) ([1]; rs6033138 allele C GENOTYPIC Imputed): 1.9484 | OR(R) ([1]; rs6033138 allele C RECESSIVE Imputed): 1.6769 | OR(R) ([1]; rs6040619 allele C ADDITIVE Imputed): 1.3881 | OR(R) ([1]; rs6040619 allele C GENOTYPIC Imputed): 2.0334 | OR(R) ([1]; rs6040619 allele C RECESSIVE Imputed): 1.7879 | OR(R) ([1]; rs6040625 allele T ADDITIVE Imputed): 1.3888 | OR(R) ([1]; rs6040625 allele T GENOTYPIC Imputed): 2.0214 | OR(R) ([1]; rs6040625 allele T RECESSIVE Imputed): 1.7684 | OR(R) ([1]; rs6040630 allele A ADDITIVE Imputed): 1.3767 | OR(R) ([1]; rs6040630 allele A GENOTYPIC Imputed): 1.9741 | OR(R) ([1]; rs6040630 allele A RECESSIVE Imputed): 1.7241 | OR(R) ([1]; rs6040633 allele A ADDITIVE Imputed): 1.3703 | OR(R) ([1]; rs6040633 allele A GENOTYPIC Imputed): 1.9475 | OR(R) ([1]; rs6040633 allele A RECESSIVE Imputed): 1.6999 | OR(R) ([1]; rs6040634 allele T ADDITIVE Imputed): 1.3722 | OR(R) ([1]; rs6040634 allele T GENOTYPIC Imputed): 1.9531 | OR(R) ([1]; rs6040634 allele T RECESSIVE Imputed): 1.7021 | OR(R) ([1]; rs6040636 allele T ADDITIVE Imputed): 1.3761 | OR(R) ([1]; rs6040636 allele T GENOTYPIC Imputed): 1.9585 | OR(R) ([1]; rs6040636 allele T RECESSIVE Imputed): 1.7021 | OR(R) ([1]; rs6040638 allele C ADDITIVE Imputed): 1.3722 | OR(R) ([1]; rs6040638 allele C GENOTYPIC Imputed): 1.9531 | OR(R) ([1]; rs6040638 allele C RECESSIVE Imputed): 1.7021 | OR(R) ([1]; rs6040644 allele A ADDITIVE Imputed): 1.3722 | OR(R) ([1]; rs9309988 allele G (A1), DOMINANT, Imputed): 1.9381 | OR(R) ([1]; rs9309989 allele C (A1), DOMINANT, Genotyped): 1.9491 | OR(R) ([1]; rs9310221 allele A (A1), DOMINANT, Imputed): 1.8519 | OR(R) ([1]; rs9327555 allele T (A1), DOMINANT, Imputed): 0.5753 | OR(R) ([1]; rs9454967 allele G (A1), ADDITIVE, Imputed): 2.1926 | OR(R) ([1]; rs9454967 allele G (A1), DOMINANT, Imputed): 2.4795 | OR(R) ([1]; rs9471295 allele T (A1), DOMINANT, Imputed): 1.5391 | OR(R) ([1]; rs9477007 allele A (A1), ADDITIVE, Imputed): 1.429 | OR(R) ([1]; rs9477007 allele A (A1), GENOTYPIC, Imputed): 2.0759 | OR(R) ([1]; rs9487279 allele T (A1), DOMINANT, Imputed): 0.5948 | OR(R) ([1]; rs9555973 allele G (A1), ADDITIVE, Imputed): 0.5479 | OR(R) ([1]; rs9555973 allele G (A1), DOMINANT, Imputed): 0.5157 | OR(R) ([1]; rs9557510 allele G (A1), ADDITIVE, Imputed): 1.6102 | OR(R) ([1]; rs9557510 allele G (A1), DOMINANT, Imputed): 1.7706 | OR(R) ([1]; rs9560584 allele T (A1), DOMINANT, Imputed): 0.512 | OR(R) ([1]; rs9588770 allele T (A1), DOMINANT, Imputed): 0.5187 | OR(R) ([1]; rs9588848 allele C (A1), ADDITIVE, Imputed): 0.5369 | OR(R) ([1]; rs9588848 allele C (A1), DOMINANT, Imputed): 0.5009 | OR(R) ([1]; rs9812206 allele G (A1), ADDITIVE, Imputed): 0.4469 | OR(R) ([1]; rs9812206 allele G (A1), DOMINANT, Imputed): 0.4369 | OR(R) ([1]; rs9813552 allele G (A1), ADDITIVE, Imputed): 0.4493 | OR(R) ([1]; rs9813552 allele G (A1), DOMINANT, Imputed): 0.4387 | OR(R) ([1]; rs9815037 allele T (A1), ADDITIVE, Imputed): 0.4461 | OR(R) ([1]; rs9815037 allele T (A1), DOMINANT, Imputed): 0.4354 | OR(R) ([1]; rs9825349 allele A (A1), ADDITIVE, Imputed): 0.4461 | OR(R) ([1]; rs9825349 allele A (A1), DOMINANT, Imputed): 0.4354 | OR(R) ([1]; rs9834217 allele T (A1), ADDITIVE, Imputed): 0.4466 | OR(R) ([1]; rs9834217 allele T (A1), DOMINANT, Imputed): 0.4359 | OR(R) ([1]; rs9840460 allele T (A1), ADDITIVE, Imputed): 0.4461 | OR(R) ([1]; rs9840460 allele T (A1), DOMINANT, Imputed): 0.4354 | OR(R) ([1]; rs9840756 allele A (A1), ADDITIVE, Imputed): 0.4458 | OR(R) ([1]; rs9840756 allele A (A1), DOMINANT, Imputed): 0.435 | OR(R) ([1]; rs9844801 allele C (A1), DOMINANT, Imputed): 1.9381 | OR(R) ([1]; rs9869187 allele C (A1), ADDITIVE, Imputed): 0.4651 | OR(R) ([1]; rs9869187 allele C (A1), DOMINANT, Imputed): 0.4704 | OR(R) ([1]; rs9872327 allele T (A1), DOMINANT, Imputed): 1.9381 | OR(R) ([1]; rs9881685 allele A (A1), ADDITIVE, Imputed): 0.4438 | OR(R) ([1]; rs9881685 allele A (A1), DOMINANT, Imputed): 0.4332 | OR(R) ([1]; rs9909499 allele C (A1), DOMINANT, Imputed): 1.4669 | OR(R) ([1]; rs9911847 allele G (A1), DOMINANT, Imputed): 0.6755 | OR(R) ([1]; rs9946886 allele G (A1), RECESSIVE, Imputed): 0.3084 | OR(R) ([1]; rs9958823 allele A (A1), ADDITIVE, Imputed): 1.5292 | OR(R) ([1]; rs9965248 allele T (A1), ADDITIVE, Imputed): 1.4965 | myopathic potential [2]: low myopathic potential
